Assays:
K. pneumoniae 13GNB–429 [1] = assay: Checkerboard assay with PAβN; assay type: cell-based, Klebsiella pneumoniae; details: for concentration at the marked interaction: resazurin
Protocol: (§1) MICs of NCL259 or NCL265 in the presence of the efflux pump inhibitor, PAβN were determined using a checkerboard assay. […] Briefly, a two-fold serial dilution of each antimicrobial solution was prepared in its appropriate solvent (e.g., DMSO for robenidine analogues and Milli-Q water for PAβN), and 1 μL of each dilution was added from wells 12 to 3 (12.8–0.25 μg/mL for robenidine analogues, and 32–2 μg/mL for PAβN). Thereafter, 89 μL of LB broth was added to each well followed by the addition of 10 μL of bacterial suspension (1–5 × 10^6 CFU/mL) to each well. In this manner, the final concentration of DMSO in each well was 1%. The plate was subsequently incubated at 37 °C for 24 h. The resazurin assay was used for assessment of drug susceptibility of NCL259 and NCL265 (Supplementary Table S1–S6). The same method was also used to test the MICs of NCL259 or NCL265 in the presence of PMB against a range of Gram-negative reference strains (E. coli ATCC 25922, E. coli ATCC 10763, P. aeruginosa PAO1, P. aeruginosa ATCC 27853, A. baumannii ATCC 12457, A. baumannii ATCC 19606, K. pneumoniae ATCC 4352 and K. pneumoniae ATCC 33495). Stock solutions were prepared prior to use (25.6–0.25 mg/mL for robenidine analogues; 12.8–0.25 mg/mL for PMB). The interaction of two antibiotics was calculated as the fractional inhibitory concentration index (FICI) using the following formula:(1) FICI=MICA in combination/MICA alone+MICB in combination/MICB alone where A is NCL259 or NCL265 and B is PAβN or PMB. According to FICI calculations, the interaction between two compounds were interpreted as follows: synergistic (FICI ≤ 0.5); additive or partially synergistic (0.5 < FICI ≤ 1); indifferent (1 < FICI ≤ 4); and antagonistic (FICI > 4), as described previously. The dose reduction index (DRI) was used to describe the difference between the effective doses of NCL259 or NCL265 in combination with PMB or PAβN in comparison to their individual doses, using the following formula:(2) DRI=MICA alone/MICA in combination
(§2) Evaluation of DRI is important clinically because it can allow the dose of a potentially toxic drug to be lowered in combination with another compound without reducing the drug’s efficacy. A DRI higher than 1 is viewed as beneficial.

K. pneumoniae 13GNB–550 [2] = assay: Checkerboard assay with PAβN; assay type: cell-based, Klebsiella pneumoniae; details: for concentration at the marked interaction: resazurin
Protocol: as §1, §2

K. pneumoniae 13GNB–429 [3] = assay: MIC, broth micro-dilution; assay type: cell-based; details: Klebsiella pneumoniae, read-out: MIC, Single Drug
Protocol: (§3) MICs for NCL259 and NCL265 (serial two-fold dilutions commencing at 256 µg/mL) were determined (in duplicate) in round bottom 96–well microtitre trays (Sarstedt 82.1582.001), using the broth micro-dilution method recommended by the Clinical and Laboratory Standards Institute (CLSI). We have shown previously that robenidine can chelate calcium ions from cation-adjusted Mueller-Hinton broth, which causes the loss of activity of robenidine. Therefore, LB broth was used in this study. Additionally, considering the low solubility of robenidine and its analogues in aqueous solutions, two-fold serial dilutions of stock solutions of these compounds were prepared in 100% DMSO [21]. The MIC for ampicillin against each isolate was determined for each test to serve as an internal quality control. The MICs of isolates were determined by visual reading and using an EnSpire Multimode Plate Reader 2300 at A600nm.
as §1

K. pneumoniae 13GNB–550 [4] = assay: MIC, broth micro-dilution; assay type: cell-based; details: Klebsiella pneumoniae, read-out: MIC, Single Drug
Protocol: as §3, §1

K. oxytoca 13GNB–582 [5] = assay: MIC, broth micro-dilution; assay type: cell-based; details: Klebsiella oxytoca, read-out: MIC, Single Drug
Protocol: as §3, §1

E. coli ATCC 25922 [6] = assay: MIC, broth micro-dilution; assay type: cell-based, Escherichia coli; details: Escherichia coli, ATCC25922, read-out: MIC, Single Drug
Protocol: (§4) A variety of Gram-negative reference strains (E. coli ATCC 25922, E. coli ATCC 10763, P. aeruginosa PAO1, P. aeruginosa ATCC 27853, A. baumannii ATCC 12457, A. baumannii ATCC 19606, K. pneumoniae ATCC 4352 and K. pneumoniae ATCC 33495) were used for initial screening and combination testing with PMB. The organisms were speciated using biochemical testing and MALDI-TOF mass spectrometry (Bruker, Preston, VIC, Australia). Activity testing of NCL259 and NCL265 was also carried out on 51 extraintestinal clinical E. coli isolates from companion animals, and 83 porcine and bovine enterotoxigenic E. coli (ETEC) isolates from the Australian Centre for Antimicrobial Resistance Ecology collection. E. coli wild-type (BW 25113) and its mutant BW 25113∆AcrB, in which the inner membrane component AcrB of the tripartite multidrug efflux system AcrA/AcrB/TolC has been deleted, were obtained from the bacterial collection held at Health and Biomedical Innovation, Clinical and Health Sciences, The University of South Australia. All isolates were cultured on sheep blood agar (SBA) plates at 37 °C for 18 h before being subcultured into Luria Bertaini (LB) (Oxoid, Scoresby, VIC, Australia) broth and grown to A600nm = 0.5 (equivalent to approx. 1.5 × 10^8 colony-forming units (CFU)/mL).
as §3

E. coli ATCC 10763 = assay: MIC, broth micro-dilution; assay type: cell-based, Escherichia coli; details: Escherichia coli, ATCC10763, read-out: MIC, Single Drug
Protocol: as §4, §3

E. coli ATCC 25922 [7] = details: cited from earlier work; for reduction in CFU (bactericidal): E. coli ATCC 25922, after 30 min treatment; for reduction of colony forming units: within 20 min at the MIC
K. oxytoca 13GNB–582 [8] = assay: Checkerboard assay with PAβN; assay type: cell-based; details: for concentration at the marked interaction: resazurin
Protocol: as §1, §2

K. pneumoniae ATCC 4352 = test system: K. pneumoniae ATCC 4352; set-up: method as in PMID 30318716; details: after 30 min treatment; cited from earlier work
[9] = K. pneumoniae 13GNB–429, PAβN + NCL259
[10] = Table S1, NCL259 + PAβN, replicate 1
[11] = Table S1, NCL259 + PAβN, replicate 2
[12] = K. pneumoniae 13GNB–550, PAβN + NCL259
[13] = Table S2, NCL259 + PAβN, replicate 2
[14] = K. oxytoca 13GNB–582, PAβN + NCL259
[15] = Table S3, NCL259 + PAβN, replicate 1
[16] = Table S3, NCL259 + PAβN, replicate 2
[17] = K. pneumoniae 13GNB–429, PAβN + NCL265
[18] = Table S4, NCL265 + PAβN, replicate 1
[19] = Table S4, NCL265 + PAβN, replicate 2
[20] = K. pneumoniae 13GNB–550, PAβN + NCL265
[21] = Table S5, NCL265 + PAβN, replicate 1
[22] = Table S5, NCL265 + PAβN, replicate 2
[23] = K. oxytoca 13GNB–582, PAβN + NCL265
[24] = Table S6, NCL265 + PAβN, replicate 1
[25] = Table S6, NCL265 + PAβN, replicate 2

[H]/N=C(\N)NN=C(CC1CCCCC1)c1ccc(Cl)cc1 [NCL259, (E)-2-(1-(4-chlorophenyl)-2-cyclohexylethylidene)hydrazine-1-carboximidamide]
DRI PAβN:NCL259 (K. pneumoniae 13GNB–429 [1]; K. pneumoniae 13GNB–429): 16
Combination Effect (K. pneumoniae 13GNB–429 [1]; [9]): Synergism (synergistic, FICI ≤ 0.5)
MIC, Combination (K. pneumoniae 13GNB–429 [1]; [9]): 16 µg/mL
interaction (K. pneumoniae 13GNB–429 [1]; [10]): synergistic (synergistic (FICI ≤ 0.5))
interaction (K. pneumoniae 13GNB–429 [1]; [11]): synergistic (synergistic (FICI ≤ 0.5))
concentration at the marked interaction (K. pneumoniae 13GNB–429 [1]; [10]): 16 µg/mL
concentration at the marked interaction (K. pneumoniae 13GNB–429 [1]; [11]): 16 µg/mL
DRI PAβN:NCL259 (K. pneumoniae 13GNB–550 [2]; K. pneumoniae 13GNB–550): 32
Combination Effect (K. pneumoniae 13GNB–550 [2]; [12]): Additivity (additive or partially synergistic, 0.5 < FICI ≤ 1)
FICI (K. pneumoniae 13GNB–550 [2]; [12]): 0.531
MIC, Combination (K. pneumoniae 13GNB–550 [2]; [12]): 8 µg/mL
interaction (K. pneumoniae 13GNB–550 [2]; [13]): synergistic (synergistic (FICI ≤ 0.5))
concentration at the marked interaction (K. pneumoniae 13GNB–550 [2]; Table S2, NCL259 + PAβN, replicate 1): 16 µg/mL
concentration at the marked interaction (K. pneumoniae 13GNB–550 [2]; [13]): 16 µg/mL
MIC (K. pneumoniae 13GNB–429 [3]): > 256 µg/mL
MIC (K. pneumoniae 13GNB–550 [4]): > 256 µg/mL
MIC (K. oxytoca 13GNB–582 [5]): > 256 µg/mL
MIC (E. coli ATCC 25922 [6]): 16 µg/mL
MIC (E. coli ATCC 10763): 64 µg/mL
reduction in CFU (bactericidal) (E. coli ATCC 25922 [7]): > 5 log 10
reduction of colony forming units (E. coli ATCC 25922 [7]): 100%
DRI PAβN:NCL259 (K. oxytoca 13GNB–582 [8]; K. oxytoca 13GNB–582): 32
Combination Effect (K. oxytoca 13GNB–582 [8]; [14]): Synergism (synergistic, FICI ≤ 0.5)
FICI (K. oxytoca 13GNB–582 [8]; [14]): 0.281
MIC, Combination (K. oxytoca 13GNB–582 [8]; [14]): 8 µg/mL
interaction (K. oxytoca 13GNB–582 [8]; [15]): synergistic (synergistic (FICI ≤ 0.5))
interaction (K. oxytoca 13GNB–582 [8]; [16]): synergistic (synergistic (FICI ≤ 0.5))
concentration at the marked interaction (K. oxytoca 13GNB–582 [8]; [15]): 8 µg/mL
concentration at the marked interaction (K. oxytoca 13GNB–582 [8]; [16]): 8 µg/mL
reduction in CFU (bactericidal) (K. pneumoniae ATCC 4352): > 5 log 10

[H]/N=C(\N)NN=C(CCCCCC)c1ccc(Cl)cc1 [NCL265, (E)-2-(1-(4-chlorophenyl)heptylidene)hydrazine-1-carboximidamide]
DRI PAβN:NCL265 (K. pneumoniae 13GNB–429 [1]; K. pneumoniae 13GNB–429): 64
Combination Effect (K. pneumoniae 13GNB–429 [1]; [17]): Additivity (additive or partially synergistic, 0.5 < FICI ≤ 1)
FICI (K. pneumoniae 13GNB–429 [1]; [17]): 0.516
MIC, Combination (K. pneumoniae 13GNB–429 [1]; [17]): 4 µg/mL
interaction (K. pneumoniae 13GNB–429 [1]; [18]): synergistic (synergistic (FICI ≤ 0.5))
interaction (K. pneumoniae 13GNB–429 [1]; [19]): synergistic (synergistic (FICI ≤ 0.5))
concentration at the marked interaction (K. pneumoniae 13GNB–429 [1]; [18]): 8 µg/mL
concentration at the marked interaction (K. pneumoniae 13GNB–429 [1]; [19]): 8 µg/mL
DRI PAβN:NCL265 (K. pneumoniae 13GNB–550 [2]; K. pneumoniae 13GNB–550): 64
Combination Effect (K. pneumoniae 13GNB–550 [2]; [20]): Additivity (additive or partially synergistic, 0.5 < FICI ≤ 1)
FICI (K. pneumoniae 13GNB–550 [2]; [20]): 0.516
MIC, Combination (K. pneumoniae 13GNB–550 [2]; [20]): 4 µg/mL
interaction (K. pneumoniae 13GNB–550 [2]; [21]): synergistic (synergistic (FICI ≤ 0.5))
interaction (K. pneumoniae 13GNB–550 [2]; [22]): synergistic (synergistic (FICI ≤ 0.5))
concentration at the marked interaction (K. pneumoniae 13GNB–550 [2]; [21]): 8 µg/mL
concentration at the marked interaction (K. pneumoniae 13GNB–550 [2]; [22]): 8 µg/mL
MIC (K. pneumoniae 13GNB–429 [3]): > 256 µg/mL
MIC (K. pneumoniae 13GNB–550 [4]): > 256 µg/mL
MIC (K. oxytoca 13GNB–582 [5]): > 256 µg/mL
MIC (E. coli ATCC 25922 [6]): 4 µg/mL
MIC (E. coli ATCC 10763): 64 µg/mL
reduction in CFU (bactericidal) (E. coli ATCC 25922 [7]): > 5 log 10
reduction of colony forming units (E. coli ATCC 25922 [7]): 100%
DRI PAβN:NCL265 (K. oxytoca 13GNB–582 [8]; K. oxytoca 13GNB–582): 128
Combination Effect (K. oxytoca 13GNB–582 [8]; [23]): Additivity (additive or partially synergistic, 0.5 < FICI ≤ 1)
FICI (K. oxytoca 13GNB–582 [8]; [23]): 0.508
MIC, Combination (K. oxytoca 13GNB–582 [8]; [23]): 2 µg/mL
interaction (K. oxytoca 13GNB–582 [8]; [24]): synergistic (synergistic (FICI ≤ 0.5))
interaction (K. oxytoca 13GNB–582 [8]; [25]): synergistic (synergistic (FICI ≤ 0.5))
concentration at the marked interaction (K. oxytoca 13GNB–582 [8]; [24]): 4 µg/mL
concentration at the marked interaction (K. oxytoca 13GNB–582 [8]; [25]): 8 µg/mL
reduction in CFU (bactericidal) (K. pneumoniae ATCC 4352): > 5 log 10

— publication PMC9598656, “In Vitro Activity of Robenidine Analogues NCL259 and NCL265 against Gram-Negative Pathogens” (Antibiotics, 2022)
